Measurements published in patent US8501782B2, “Piperidinyl derivatives as modulators of chemokine receptor activity” (Bristol-Myers Squibb Company, priority 2007, dated 2013).

Molecular target: T1, CCR1 (Homo sapiens, UniProt P32246)
T1 construct: THP-1 monocytic leukemia cells are combined with 100 μg of LS WGA PS beads; endogenous in cells; host or cells: THP-1 human monocytic leukemia cells
T1 sequence (P32246 1-355): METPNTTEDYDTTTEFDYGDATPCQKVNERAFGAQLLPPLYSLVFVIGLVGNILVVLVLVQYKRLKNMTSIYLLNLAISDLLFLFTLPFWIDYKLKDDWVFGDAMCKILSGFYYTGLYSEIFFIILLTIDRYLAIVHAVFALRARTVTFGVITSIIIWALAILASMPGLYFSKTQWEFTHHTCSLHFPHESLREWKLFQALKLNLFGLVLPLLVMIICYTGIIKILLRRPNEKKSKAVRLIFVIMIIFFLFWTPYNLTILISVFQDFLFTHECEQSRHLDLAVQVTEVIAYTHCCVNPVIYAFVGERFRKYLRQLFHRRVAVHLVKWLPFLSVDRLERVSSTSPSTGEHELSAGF
Experiment: CCR1 ligand binding scintillation proximity assay (SPA): antagonism of MIP-1α binding to human THP-1 cells
Conditions: THP-1 monocytic leukemia cells, 0.1 nM [125I]-MIP-1α, 12 h at room temperature
Method: Antagonism of MIP-1α Binding to Human THP-1 Cells
CCR1 ligand binding scintillation proximity assay (SPA) description:
For radioligand competition studies, a final concentration of 1×10^5 THP-1 monocytic leukemia cells are combined with 100 μg of LS WGA PS beads (Amersham, Cat.#: RPNQ 0260) in 40 μl of assay buffer (RPMI 1640 without phenol red, 50 mM HEPES, 5 mM MgCl2, 1 mM CaCl2, 0.1% BSA). The THP-1 cell/bead mixture is added to each well of a 384-well assay plate (PerkinElmer, Cat. #:6007899) containing test compound in 3-fold serial dilution, with final concentrations ranging from 8 μM to […]. A final concentration of 0.1 nM [^125I]-MIP-1α (PerkinElmer, Cat. #NEX298) in 20 μl assay buffer is added to the reaction. Sealed assay plates are incubated at room temperature for 12 h then analyzed by LEADseeker™.
The competition data of the test compound over a range of concentrations is plotted as percentage inhibition of radioligand specific bound in the absence of test compound (percent of total signal). After correcting for non-specific binding, IC50 values are determined. The IC50 value is defined as the concentration of test compound needed to reduce [^125I]-MIP-1α specific binding by 50% and is calculated using the four parameter logistic equation to fit the normalized data. The Ki values are determined by application of the Cheng-Prusoff equation to the IC50 values, where Ki=IC50/(1+ligand concentration/Kd) The Kd of [^125I]-MIP-1α in THP-1 cells is 0.1 nM. Each experiment is run in duplicate.

IC50 [nM] | Compound
1190 | CC(NC(=O)c1ccccc1)C(C)C(=O)N1CC[C@](O)(c2ccc(Cl)cc2)C(C)(C)C1 (single isomer, unassigned) [Example 72a]
43.9 | CC(=O)N[C@@H]1CC[C@@H](C(=O)N[C@H](C)CC(=O)N2CC[C@](O)(c3ccc(Cl)cc3)C(C)(C)C2)C1 [Example 11, (1R,3R)-3-Acetamido-N—((R)-4-((S)-4-(4-chlorophenyl)-4-hydroxy-3,3-dimethylpiperidin-1-yl)-4-oxobutan-2-yl)cyclopentanecarboxamide]
1180 | CC1(C)CN(C(=O)CC2(NC(=O)c3ccccc3)CCOCC2)CC[C@]1(O)c1ccc(Cl)cc1 [Example 15, (S)—N-(4-(2-(4-(4-Chlorophenyl)-4-hydroxy-3,3-dimethylpiperidin-1-yl)-2-oxoethyl)tetrahydro-2H-pyran-4-yl)benzamide]
42 | CC(CNC(=O)C1CCCC1)C(=O)N1CC[C@](O)(c2ccc(Cl)cc2)C(C)(C)C1 (stereo partly drawn) [Example 21]
41.6 | CC1(C)CN(C(=O)CCNC(=O)c2ccccc2)CC[C@]1(O)c1ccc(Cl)cc1 [Example 27]
46.7 | C[C@H](CC(=O)N1CC[C@](O)(c2ccc(Cl)cc2)C(C)(C)C1)NC(=O)[C@@H]1CC[C@@H](NC(=O)OC(C)(C)C)C1 [Example 28]
1.7 | CC(C)(CC(=O)N1CC[C@](O)(c2ccc(Cl)cc2)C(C)(C)C1)NC(=O)C1CCCC1 [Example 35]
1.5 | Cc1cc(C)c(C(=O)NC(C)(C)CC(=O)N2CC[C@](O)(c3ccc(Cl)cc3)C(C)(C)C2)cn1 [Example 40]
1.8 | CC(C)(CC(=O)N1CC[C@](O)(c2ccc(Cl)cc2)C(C)(C)C1)NC(=O)c1cccc(C(N)=O)c1 [Example 42]
2.2 | CC(C)(CC(=O)N1CC[C@](O)(c2ccc(Cl)cc2)C(C)(C)C1)NC(=O)c1cccc(-n2cnnn2)c1 [Example 50]
45.3 | CC(C)(CC(=O)N1CCC(O)(c2ccc(C#N)cc2)C(C)(C)C1)NC(=O)c1ccccc1 (stereo not drawn) [Example 60]
1.9 | C[C@H](NC(=O)NC(C)(C)CC(=O)N1CC[C@](O)(c2ccc(Cl)cc2)C(C)(C)C1)C(C)(C)O [Example 63, 1-(4-((S)-4-(4-Chlorophenyl)-4-hydroxy-3,3-dimethylpiperidin-1-yl)-2-methyl-4-oxobutan-2-yl)-3-((S)-3-hydroxy-3-methylbutan-2-yl)urea]
991 | CCOC(=O)c1cc(C2(O)CCN(C(=O)CC(C)(C)NC(=O)c3ccccc3)CC2(C)C)ccc1Cl (stereo not drawn) [Example 78]
788 | CC(C)(CC(=O)N1CCC(O)(c2ncc(Cl)cc2Cl)C(C)(C)C1)NC(=O)c1ccccc1 (stereo not drawn) [Example 83]
809 | CC(C)[C@@H](CNC(=O)Cc1ccccc1)C(=O)N1CC[C@](O)(c2ccc(Cl)cc2)C(C)(C)C1 [Example 89]
